Data taken from US9981925B2, “Substituted benzo[d][1,2,3]triazines as p70S6K inhibitors” (Merck Patent GmbH, priority 2012, dated 2018).
pIC50: −log10 of the molar value.

Tests used:
p70S6K (T412E mutant) = p70S6K (T412E mutant) (Homo sapiens (Human), UniProt P23443, T412E); experiment: p70S6K enzyme assay; type: biochemical
Procedure: p70S6K inhibitor compounds were diluted and plated in 96 well plates. A reaction mixture including the following components were then added to the compound plate to initiate the enzyme reaction: p70S6K (3 nM, T412E mutant, Millipore) was mixed with 24 μM ATP in an assay buffer containing 100 mM Hepes (pH 7.5), 5 mM MgCl2, 1 mM DTT, 0.015% Brij and 1 μM of the substrate peptide FITC-AHA-[…]-OH (derived from the S6 ribosomal protein sequence, FITC=fluorescein isothiocyanate, AHA=6-aminohexanoic acid). The reaction was incubated for 90 min at 25° C., before the addition of 10 mM EDTA to stop the reaction. The proportion of substrate and product (phosphorylated) peptide was analyzed on a Caliper Life Sciences Lab Chip 3000, using a pressure of −1.4 psi, and upstream and downstream voltages of −3000 and −700, respectively. Product peaks were resolved before substrate peaks on the resulting chromatograms. To assess the inhibitory potential of the compounds, IC50 values were determined, as shown above.

His-AKT (Full Length) = His-AKT (Full Length) (Homo sapiens (Human), UniProt P31749); experiment: AKT/PKB kinase assay; type: biochemical
Chain of His-AKT (Full Length) (P31749 whole entry): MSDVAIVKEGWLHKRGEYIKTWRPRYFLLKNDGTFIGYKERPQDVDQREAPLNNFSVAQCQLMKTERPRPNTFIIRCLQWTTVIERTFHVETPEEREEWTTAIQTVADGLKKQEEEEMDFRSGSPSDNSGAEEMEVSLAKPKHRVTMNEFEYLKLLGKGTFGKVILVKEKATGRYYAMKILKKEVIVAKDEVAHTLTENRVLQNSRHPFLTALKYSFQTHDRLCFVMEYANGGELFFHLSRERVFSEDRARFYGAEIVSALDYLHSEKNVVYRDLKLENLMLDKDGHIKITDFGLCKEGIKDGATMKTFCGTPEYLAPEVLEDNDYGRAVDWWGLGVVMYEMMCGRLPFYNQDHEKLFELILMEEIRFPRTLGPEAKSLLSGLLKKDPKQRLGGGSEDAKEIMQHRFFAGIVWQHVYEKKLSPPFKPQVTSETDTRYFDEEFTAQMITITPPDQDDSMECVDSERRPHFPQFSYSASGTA
Procedure: In order to measure AKT inhibition in the Caliper Life Sciences LC3000, a TTP Mosquito liquid handling instrument was used to place 125 nl of the appropriate concentration of inhibitor in 100% DMSO (for a dose response curve calculation) into each well of a 384-well plate. To this reaction, the following components were added to a final volume of 12.5 μl: • 0.1 ng/μl His-AKT (Full Length) (Invitrogen, Part # P2999, Lot #641228C); • 160 μM ATP (Fluka, 02055); • 1 mM DTT (Sigma, D0632); • 1 mM MgCl2 (Sigma, M1028); • 1 μM substrate peptide (sequence FITC-AHA-[…]-NH2), synthesized by • Tufts Peptide Synthesis service; • 100 mM HEPES pH 7.5 (Calbiochem, 391338); and • 0.015% Brij-35 (Sigma, B4184).
The reaction was incubated for 90 min at 25° C., and then stopped by the addition of 70 μl of Stop buffer (100 mM HEPES pH 7.5, 0.015% Brij-35, 10 mM EDTA (Sigma, E7889)). The plate was read on a Caliper LC 3000 in an Off-Chip mobility shift assay format, using the following parameters for a 12-sipper chip: screening pressure −2.3 psi, upstream voltage −500, and downstream voltage −3000. These conditions cause unphosphorylated substrate and phosphorylated product peptide to resolve as separate peaks allowing direct measurement of percentage of conversion of substrate to product. The percent conversion was plotted against concentration of inhibitor to produce a sigmoidal dose response curve, from which an IC50 was calculated.

[1] = 24 μM ATP, 90 min at 25° C., Caliper mobility shift
[2] = 160 μM ATP, 90 min at 25° C., Caliper mobility shift
[3] = value printed in the synthesis paragraph

Chain of p70S6K (T412E mutant) (P23443 whole entry T412E): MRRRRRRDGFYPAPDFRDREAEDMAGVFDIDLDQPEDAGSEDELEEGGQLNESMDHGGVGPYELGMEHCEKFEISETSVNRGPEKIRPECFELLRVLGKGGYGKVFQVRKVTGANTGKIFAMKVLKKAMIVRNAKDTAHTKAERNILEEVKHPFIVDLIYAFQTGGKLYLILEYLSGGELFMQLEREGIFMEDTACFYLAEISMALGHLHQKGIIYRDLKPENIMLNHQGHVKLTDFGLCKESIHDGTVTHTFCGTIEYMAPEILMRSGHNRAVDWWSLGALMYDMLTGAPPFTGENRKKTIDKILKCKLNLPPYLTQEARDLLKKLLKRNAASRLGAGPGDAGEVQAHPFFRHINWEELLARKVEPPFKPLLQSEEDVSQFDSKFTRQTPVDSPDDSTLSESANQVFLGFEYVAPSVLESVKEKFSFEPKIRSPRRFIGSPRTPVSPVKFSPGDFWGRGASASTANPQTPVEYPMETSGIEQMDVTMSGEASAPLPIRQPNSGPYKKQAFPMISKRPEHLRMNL

SMILES | pIC50 (p70S6K (T412E mutant); [1]) | pIC50 (His-AKT (Full Length); [2]) | pIC50 (p70S6K (T412E mutant); [3]) | pIC50 (His-AKT (Full Length); [3])
CNC[C@@H](Nc1ncnc2c(C(N)=O)ccnc12)c1ccc(F)c(Br)c1 [Compound 28, 4-[(S)-1-(3-Bromo-4-fluoro-phenyl)-2-methylamino-ethylamino]-pyrido[3,2-d]pyrimidine-8-carboxylic Acid Amide] | > 7.60 | > 7.60 | – | –
CCNC[C@@H](Nc1ncnc2c(C(N)=O)ccnc12)c1ccc(C(F)(F)F)c(F)c1 [Compound 29, 4-[(S)-2-Ethylamino-1-(3-fluoro-4-trifluoromethyl-phenyl)-ethylamino]-pyrido[3,2-d]pyrimidine-8-carboxylic Acid Amide] | > 7.60 | 7.00 to 7.60 | – | –
CCNC[C@@H](Nc1ncnc2c(C(N)=O)ccnc12)c1cc(F)c(OC)cc1F [Compound 31, 4-[(S)-1-(2,5-Difluoro-4-methoxy-phenyl)-2-ethylamino-ethylamino]-pyrido[3,2-d]pyrimidine-8-carboxylic Acid Amide] | 7.00 to 7.60 | < 6.00 | – | –
CNC[C@@H](Nc1ncnc2c(C(N)=O)ccnc12)c1cc(F)c(OC)cc1F [Compound 32, 4-[(S)-1-(2,5-Difluoro-4-methoxy-phenyl)-2-methylamino-ethylamino]-pyrido[3,2-d]pyrimidine-8-carboxylic Acid Amide] | > 7.60 | 6.30 to 7.00 | – | –
CCNC[C@@H](Nc1ncnc2c(C(N)=O)ccnc12)c1ccc(Cl)c(C(F)(F)F)c1 [Compound 33, 4-[(S)-1-(4-Chloro-3-trifluoromethyl-phenyl)-2-ethylamino-ethylamino]-pyrido[3,2-d]pyrimidine-8-carboxylic Acid Amide] | > 7.60 | 7.00 to 7.60 | – | –
CCNC[C@@H](Nc1ncnc2c(C(N)=O)ccnc12)c1cc(F)cc(C(F)(F)F)c1 [Compound 34, 4-[(S)-2-Ethylamino-1-(3-fluoro-5-trifluoromethyl-phenyl)-ethylamino]-pyrido[3,2-d]pyrimidine-8-carboxylic Acid Amide] | 7.00 to 7.60 | 6.30 to 7.00 | – | –
CNC[C@@H](Nc1ncnc2c(C(N)=O)ccnc12)c1cc(F)cc(C(F)(F)F)c1 [Compound 35, 4-[(S)-1-(3-Fluoro-5-trifluoromethyl-phenyl)-2-methylamino-ethylamino]-pyrido[3,2-d]pyrimidine-8-carboxylic Acid Amide] | > 7.60 | 7.00 to 7.60 | – | –
NC(=O)c1ccnc2c(N[C@H](CN3CCC3)c3ccc(Cl)cc3)ncnc12 [Compound 36, 4-[(S)-2-Azetidin-1-yl-1-(4-chloro-phenyl)-ethylamino]-pyrido[3,2-d]pyrimidine-8-carboxylic Acid Amide] | > 7.60 | 6.30 to 7.00 | – | –
CC(C)c1ccc([C@@H](CN2CCC2)Nc2ncnc3c(C(N)=O)ccnc23)cc1 [Compound 37, 4-[(S)-2-Azetidin-1-yl-1-(4-isopropyl-phenyl)-ethylamino]-pyrido[3,2-d]pyrimidine-8-carboxylic Acid Amide] | > 7.60 | 6.00 to 6.30 | – | –
CNC[C@@H](Nc1ncnc2c(C(N)=O)ccnc12)c1ccc(C(F)(F)F)cc1 [Compound 38, 4-[(S)-2-Methylamino-1-(4-trifluoromethyl-phenyl)-ethylamino]-pyrido[3,2-d]pyrimidine-8-carboxylic Acid Amide] | > 7.60 | 7.00 to 7.60 | – | –
CNC[C@@H](Nc1ncnc2c(C(N)=O)ccnc12)c1ccc(C(C)C)cc1 [Compound 39, 4-[(S)-1-(4-Isopropyl-phenyl)-2-methylamino-ethylamino]-pyrido[3,2-d]pyrimidine-8-carboxylic Acid Amide] | > 7.60 | 6.30 to 7.00 | – | –
CNC[C@@H](Nc1ncnc2c(C(N)=O)nccc12)c1ccc(C(C)C)cc1 [Compound 40, 4-[(S)-1-(4-Isopropyl-phenyl)-2-methylamino-ethylamino]-pyrido[3,4-d]pyrimidine-8-carboxylic Acid Amide] | 7.00 to 7.60 | < 6.00 | – | –
NC(=O)c1ccnc2c(N[C@H](CN3CCC3)c3ccc(Cl)c(C(F)(F)F)c3)ncnc12 [Compound 41, 4-[(S)-2-Azetidin-1-yl-1-(4-chloro-3-trifluoromethyl-phenyl)-ethylamino]-pyrido[3,2-d]pyrimidine-8-carboxamide] | > 7.60 | > 7.60 | 8.80 | 7.96
CNC[C@@H](Nc1ncnc2c(C(N)=O)nccc12)c1ccc(Cl)c(C(F)(F)F)c1 [Compound 42, 4-[(S)-1-(4-Chloro-3-trifluoromethyl-phenyl)-2-methylamino-ethylamino]-pyrido[3,4-d]pyrimidine-8-carboxylic Acid Amide] | > 7.60 | > 7.60 | – | –
CNC[C@@H](Nc1ncnc2c(C(N)=O)ccnc12)c1ccc(C(F)(F)F)c(C(F)(F)F)c1 [Compound 43, 4-[(S)-1-(3,4-Bis-trifluoromethyl-phenyl)-2-methylamino-ethylamino]-pyrido[3,2-d]pyrimidine-8-carboxylamide] | > 7.60 | > 7.60 | – | –
CNC[C@@H](Nc1ncnc2c(C(N)=O)ccnc12)c1ccc(Cl)c(C)c1 [Compound 44, 4-[(S)-1-(4-Chloro-3-methyl-phenyl)-2-methylamino-ethylamino]-pyrido[3,2-d]pyrimidine-8-carboxylic Acid Amide] | > 7.60 | > 7.60 | – | –
CNC[C@@H](Nc1ncnc2c(C(N)=O)ccnc12)c1ccc(Cl)cc1 [Compound 45, 4-[(S)-1-(4-Chloro-phenyl)-2-methylamino-ethylamino]-pyrido[3,2-d]pyrimidine-8-carboxylic Acid Amide] | > 7.60 | 7.00 to 7.60 | – | –
Cc1cc([C@@H](CN2CCC2)Nc2ncnc3c(C(N)=O)ccnc23)ccc1Cl [Compound 46, 4-[(S)-2-Azetidin-1-yl-1-(4-chloro-3-methyl-phenyl)-ethylamino]-pyrido[3,2-d]pyrimidine-8-carboxylic Acid Amide] | > 7.60 | > 7.60 | – | –
CNC[C@@H](Nc1ncnc2c(C(N)=O)ccnc12)c1ccc(F)c(C(F)(F)F)c1 [Compound 49, 4-[(S)-1-(4-Fluoro-3-trifluoromethyl-phenyl)-2-methylamino-ethylamino]-pyrido[3,2-d]pyrimidine-8-carboxylic Acid Amide] | > 7.60 | > 7.60 | – | –
CN(C)C[C@@H](Nc1ncnc2c(C(N)=O)ccnc12)c1ccc(F)c(C(F)(F)F)c1 [Compound 50, 4-[(S)-2-Dimethylamino-1-(4-fluoro-3-trifluoromethyl-phenyl)-ethylamino]-pyrido[3,2-d]pyrimidine-8-carboxylic Acid Amide] | > 7.60 | 7.00 to 7.60 | – | –
CNC[C@@H](Nc1ncnc2c(C(N)=O)ccnc12)c1ccc(F)c(C(F)F)c1 [Compound 51, 4-[(S)-1-(3-Difluoromethyl-4-fluoro-phenyl)-2-methylamino-ethylamino]-pyrido[3,2-d]pyrimidine-8-carboxylic Acid Amide] | > 7.60 | > 7.60 | – | –
CC(C)NC[C@@H](Nc1ncnc2c(C(N)=O)ccnc12)c1ccc(F)c(C(F)(F)F)c1 [Compound 52, 4-[(S)-1-(4-Fluoro-3-trifluoromethyl-phenyl)-2-isopropylamino-ethylamino]-pyrido[3,2-d]pyrimidine-8-carboxylic Acid Amide] | 7.00 to 7.60 | 6.30 to 7.00 | – | –
CC(C)NC[C@@H](Nc1ncnc2c(C(N)=O)ccnc12)c1ccc(Cl)c(F)c1 [Compound 54, 4-[(S)-1-(4-Chloro-3-fluoro-phenyl)-2-isopropylamino-ethylamino]-pyrido[3,2-d]pyrimidine-8-carboxylic Acid Amide] | 7.00 to 7.60 | 6.30 to 7.00 | – | –
CC(C)NC[C@@H](Nc1ncnc2c(C(N)=O)ccnc12)c1ccc(Cl)c(C(F)(F)F)c1 [Compound 55, 4-[(S)-1-(4-Chloro-3-trifluoromethyl-phenyl)-2-isopropylamino-ethylamino]-pyrido[3,2-d]pyrimidine-8-carboxylic Acid Amide] | 6.30 to 7.00 | 6.30 to 7.00 | – | –
CCNC[C@@H](Nc1ncnc2c(C(N)=O)ccnc12)c1ccc(F)c(C(F)(F)F)c1 [Compound 56, 4-[(S)-2-Ethylamino-1-(4-fluoro-3-trifluoromethyl-phenyl)-ethylamino]-pyrido[3,2-d]pyrimidine-8-carboxylic Acid Amide] | > 7.60 | 7.00 to 7.60 | – | –
